Data on 16 compounds can be found in patent US9290476B2, “Methylene linked quinolinyl modulators of RORγt” (Janssen Pharmaceutica NV, priority 2012, dated 2016).

For one assay, the target named is human RORγt LBD (Homo sapiens (Human), UniProt P51449). The experiment in a line: RORγt reporter assay (GAL4-RORγt LBD luciferase in HEK293T cells). It is filed as cell-based. Conditions: for IC50 / RORγt reporter Assay, % inhibition @ 6 μM: HEK293T cells; for IC50: 24 hours compound treatment; for inhibition at 6 µM: HEK-293T, read-out: RORγt reporter Assay, % inhibition @ 6 μM, HEK293T cells, 6 μM. From the text: A reporter assay was used to test functional activity of RORγt modulatory compounds on transcriptional activation driven by the RORγt LBD. Cells used in the assay were co-transfected with two constructs. The first construct, pBIND-RORγt LBD, contained the wild type human RORγt LBD fused to the DNA binding domain of the GAL4 protein. The second construct, pGL4.31 (Promega Cat no. C935A), contained multiple GAL4 responsive DNA elements upstream of firefly luciferase. […] The mutant construct was called pBIND-RORγt-AF2.
Sequence of human RORγt LBD (P51449 258-518): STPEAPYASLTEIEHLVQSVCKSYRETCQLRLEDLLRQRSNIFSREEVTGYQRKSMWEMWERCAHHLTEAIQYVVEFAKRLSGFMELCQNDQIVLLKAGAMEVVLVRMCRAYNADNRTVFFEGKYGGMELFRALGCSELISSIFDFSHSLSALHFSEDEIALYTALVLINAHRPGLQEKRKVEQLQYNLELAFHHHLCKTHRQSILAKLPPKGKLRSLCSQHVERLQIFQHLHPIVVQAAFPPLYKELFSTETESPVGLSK
The pBIND vector contains the GAL4 DNA Binding Domain (GAL4 DBD) and the renilla luciferase gene under control of the SV40 promoter. Renilla luciferase expression serves as a control for transfection efficiency and cell viability.
The reporter assay was performed by transiently transfecting HEK293T cells with 5 ng of pBIND-RORγt LBD or pBIND-RORγt LBD-AF2 and 5 μg pGL4.31 (Promega Cat no. C935A) using Fugene 6 ([…] Cat no. E2691) at a 1:6 ratio of DNA: Fugene 6 in a T-75 flask in which cells were at least 80% confluent. Twenty four hours after bulk transfection, cells were plated into 96-well plates at 50,000 cells/well in phenol-red free DMEM containing 5% Lipid Reduced FCS and Pen/Strep. Six hours after plating, cells were treated with compounds for 24 hours. Media was removed and cells were lysed with 50 μL 1× Glo Lysis Buffer (Promega). Dual Glo Luciferase Reagent (50 μL/well) was then added and firefly luciferase luminescence was read on an Envision after a ten minute incubation. Finally, Stop and Glo reagent (50 μL/well) was added and renilla luciferase luminescence was read on an Envision after a ten minute incubation. To calculate the effect of compounds on RORγt activity, the ratio of firefly to renilla luciferase was determined and plotted against compound concentration. Agonist compounds increase RORγt-driven luciferase expression, and antagonist or inverse agonist compounds decrease luciferase expression.

The target in assay [1] is human RORγt ligand binding domain (RORγt LBD) (Homo sapiens (Human), UniProt P51449). The experiment in a line: RORγt ThermoFluor assay (thermal shift binding affinity). The note with it: estimated from thermal shift. The method, then: This approach is applicable to a wide variety of systems, and rigorous in theoretical interpretation through quantitation of equilibrium binding constants (KD).
Sequence of human RORγt ligand binding domain (RORγt LBD) (P51449 other isoform, or with tags, fused parts or gaps): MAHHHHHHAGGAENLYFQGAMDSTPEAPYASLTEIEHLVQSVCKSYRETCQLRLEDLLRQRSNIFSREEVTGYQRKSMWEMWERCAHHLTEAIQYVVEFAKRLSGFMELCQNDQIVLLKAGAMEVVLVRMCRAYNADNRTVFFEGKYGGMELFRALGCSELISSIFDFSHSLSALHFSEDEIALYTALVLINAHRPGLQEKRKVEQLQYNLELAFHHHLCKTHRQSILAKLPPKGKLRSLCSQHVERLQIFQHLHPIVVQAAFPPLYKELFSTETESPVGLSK
The shift in the melting point described as a ΔTm is proportional to the concentration and affinity of the ligand.
RORγt ThermoFluor® Assay Construct
Protein and compound solutions are dispensed into black 384-well polypropylene PCR microplates (Abgene) and overlayed with silicone oil (1 μL, Fluka, type DC 200) to prevent evaporation.
Bar-coded assay plates are robotically loaded onto a thermostatically controlled PCR-type thermal block and then heated at a typical ramp-rate of 1° C./min for all experiments. Fluorescence was measured by continuous illumination with UV light (Hamamatsu LC6) supplied via fiber optic and filtered through a band-pass filter (380-400 nm; >6 OD cutoff). Fluorescence emission of the entire 384-well plate was detected by measuring light intensity using a CCD camera (Sensys, Roper Scientific) filtered to detect 500±25 nm, resulting in simultaneous and independent readings of all 384 wells. Images were collected at each temperature, and the sum of the pixel intensity in a given area of the assay plate was recorded versus temperature. Reference wells contained RORγt without compounds, and the assay conditions were as follows: • 0.065 mg/mL RORγt • 60 μM 1,8-ANS • 100 mM Hepes, pH 7.0 • 10 mM NaCl • 2.5 mM GSH • 0.002% Tween-20
Project compounds were arranged in a pre-dosed mother plate (Greiner Bio-one) wherein compounds are serially diluted in 100% DMSO by 1:2 from a high concentration of 10 mM over 12 columns within a series (column 12 is a reference well containing DMSO, no compound). The compounds were robotically dispensed directly into assay plates (1×=46 nL) using a Hummingbird capillary liquid handling instrument (Digilab). Following compound dispense, protein and dye in buffer was added to achieve the final assay volume of 3 μL, followed by 1 μL of silicone oil.

Structures can show the parent of a compound that is named as a salt.

For orientation: IC50 means the concentration needed to halve the response being measured. In general, inhibition refers to the change of the read-out against control, counted positive when it falls. A word on the Kd: it is the free concentration of one partner at which half of the binding sites on the other are occupied at equilibrium, for simple one-to-one binding.

In the case of `Cn1cncc1C(O)(c1ccc(Cl)cc1)c1ccc2nc(O)c(Cc3ccc(-n4cccn4)cc3)c(Cl)c2c1` (single isomer, unassigned) [Example 55B, 3-(4-(1H-pyrazol-1-yl)benzyl)-4-chloro-6-((4-chlorophenyl)(hydroxy)(1-methyl-1H-imidazol-5-yl)methyl)quinolin-2-ol], on human RORγt LBD, it took 2.4 µM to reach half-maximal inhibition (IC50) and the inhibition at 6 µM came to 85%. Also, in assay [1], the Kd is greater than 81 µM.
Regarding `Cn1cncc1C(O)(c1ccc(Cl)cc1)c1ccc2nc(O)c(Cc3ccc(-n4cccn4)cc3)c(Cl)c2c1` (single isomer, unassigned) [Example 55C, 3-(4-(1H-pyrazol-1-yl)benzyl)-4-chloro-6-((4-chlorophenyl)(hydroxy)(1-methyl-1H-imidazol-5-yl)methyl)quinolin-2-ol], at human RORγt LBD, the “RORγt reporter Assay, % inhibition @ 6 μM” value is recorded as 92% and the IC50 came out at 3.2 µM. Moreover, the Kd in assay [1] is 3.5 µM.
For `COc1nc2c(F)cc(C(O)(c3ccc(C(F)(F)F)nc3)c3cncn3C)cc2c(Cl)c1Cc1ccc(-n2cccn2)cc1` (single isomer, unassigned) [Example 58C, (3-(4-(1H-pyrazol-1-yl)benzyl)-4-chloro-8-fluoro-2-methoxyquinolin-6-yl)(1-methyl-1H-imidazol-5-yl)(6-(trifluoromethyl)pyridin-3-yl)methanol] the same measures were 109%, 0.66 µM and 0.27 µM.
`COc1nc2c(OC)cc(C(O)(c3ccc(C(F)(F)F)nc3)c3cncn3C)cc2c(Cl)c1Cc1ccc(-n2cccn2)cc1` (single isomer, unassigned) [Example 59C, (3-(4-(1H-pyrazol-1-yl)benzyl)-4-chloro-2,8-dimethoxyquinolin-6-yl)(1-methyl-1H-imidazol-5-yl)(6-(trifluoromethyl)pyridin-3-yl)methanol]: at human RORγt LBD, the “RORγt reporter Assay, % inhibition @ 6 μM” value stood at 108% and the midpoint of inhibition, the IC50, lay at 0.57 µM. In assay [1], the Kd was 0.22 µM.
`Cn1cncc1C(O)(c1ccc(C(F)(F)F)nc1)c1ccc2nc(C#N)c(Cc3ccc(-n4cccn4)cc3)cc2c1` (single isomer, unassigned) [Example 70B, 3-(4-(1H-Pyrazol-1-yl)benzyl)-6-(hydroxy(1-methyl-1H-imidazol-5-yl)(6-(trifluoromethyl)pyridin-3-yl)methyl)quinoline-2-carbonitrile]: on human RORγt LBD, the IC50 stood at 1 µM and the inhibition at 6 µM is 101%. For the same compound, the Kd in assay [1] is 1.1 µM.
Take `Cn1cncc1C(O)(c1ccc(C(F)(F)F)nc1)c1ccc2nc(C#N)c(Cc3ccc(-n4cccn4)cc3)cc2c1` (single isomer, unassigned) [Example 70C, 3-(4-(1H-Pyrazol-1-yl)benzyl)-6-(hydroxy(1-methyl-1H-imidazol-5-yl)(6-(trifluoromethyl)pyridin-3-yl)methyl)quinoline-2-carbonitrile]: on human RORγt LBD, the “RORγt reporter Assay, % inhibition @ 6 μM” value amounted to 85% and the IC50 was found to be 1.6 µM. Moreover, in assay [1], the Kd is 16 µM.
In the case of `CCN(CC)c1nc2ccc(C(O)(c3ccc(C(F)(F)F)nc3)c3cncn3C)cc2c(C#N)c1Cc1ccc(-n2cccn2)cc1` (single isomer, unassigned) [Example 74C, 3-(4-(1H-Pyrazol-1-yl)benzyl)-2-(diethylamino)-6-(hydroxy(1-methyl-1H-imidazol-5-yl)(6-(trifluoromethyl)pyridin-3-yl)methyl)quinoline-4-carbonitrile], at human RORγt LBD, the “RORγt reporter Assay, % inhibition @ 6 μM” value was 90% and the IC50 is 0.93 µM. Besides, the Kd in assay [1] was 21 µM.
Regarding `CCN(CC)c1nc2ccc(C(O)(c3ccc(Cl)cc3)c3cncn3C)cc2c(Cl)c1Cc1ccc(-n2cccn2)cc1` (single isomer, unassigned) [Example 75B, (3-(4-(1H-Pyrazol-1-yl)benzyl)-4-chloro-2-(diethylamino)quinolin-6-yl)(4-chlorophenyl)(1-methyl-1H-imidazol-5-yl)methanol], on human RORγt LBD, the “RORγt reporter Assay, % inhibition @ 6 μM” value is given as 39% and the IC50 was greater than 6 µM. In assay [1], the Kd was 8.6 µM.
`COc1nc2ccc(C(O)(c3ccc(C#N)cc3)c3cncn3C)cc2c(C#N)c1Cc1ccc(-n2cccn2)cc1` (single isomer, unassigned) [Example 76B, 3-(4-(1H-Pyrazol-1-yl)benzyl)-6-((4-cyanophenyl)(hydroxy)(1-methyl-1H-imidazol-5-yl)methyl)-2-methoxyquinoline-4-carbonitrile]: on human RORγt LBD, the IC50 was 0.12 µM and the inhibition at 6 µM came to 102%. In assay [1], the Kd is 0.076 µM.
For `COc1nc2ccc(C(N)(c3ccc(C)nc3C)c3cnnn3C)cc2c(Cl)c1Cc1ccc(C(F)(F)F)cc1` (single isomer, unassigned) [Example 87B, (4-Chloro-2-methoxy-3-(4-(trifluoromethyl)benzyl)quinolin-6-yl)(2,6-dimethylpyridin-3-yl)(1-methyl-1H-1,2,3-triazol-5-yl)methanamine] the same measures were 0.85 µM, 95% and 2.3 µM.
The matching figures for `Cc1ccc(C(O)(c2ccc3nc(C#N)c(Cc4ccc(C(F)(F)F)cc4)c(C#N)c3c2)c2cnnn2C)c(C)n1` (single isomer, unassigned) [Example 88B, 6-((2,6-Dimethylpyridin-3-yl)(hydroxy)(1-methyl-1H-1,2,3-triazol-5-yl)methyl)-3-(4-(trifluoromethyl)benzyl)quinoline-2,4-dicarbonitrile]: 0.14 µM, 96% and 0.029 µM.
In the case of `OC(c1cccnc1)(c1cccc(Cl)c1)c1ccc2nc(Cl)c(Cc3cccc(Cl)c3)c(Cl)c2c1` (stereo not drawn) [Example 4, (3-Chlorophenyl)-(2,4-dichloro-3-(3-chlorobenzyl)quinolin-6-yl)-(pyridin-3-yl)methanol.TFA], at human RORγt LBD, the IC50 is roughly 6 µM and the inhibition at 6 µM was determined as 46%. Also, the Kd in assay [1] was 0.0077 µM.
For the compound `COc1ccc(Cc2c(Cl)nc3ccc(C(O)(c4cccnc4)c4cccc(Cl)c4)cc3c2Cl)cc1` (stereo not drawn) [Example 6, (3-Chlorophenyl)-(2,4-dichloro-3-(4-methoxybenzyl)quinolin-6-yl)-(pyridin-3-yl)methanol.TFA], at human RORγt LBD, the IC50 was roughly 2 µM and the inhibition at 6 µM was found to be 96%. Besides, the Kd in assay [1] was 0.015 µM.
The matching figures for `COc1nc2ccc(C(O)(c3cccnc3)c3cccc(Cl)c3)cc2c(Cl)c1Cc1ccc(F)cc1` (stereo not drawn) [Example 7, (4-Chloro-3-(4-fluorobenzyl)-2-methoxyquinolin-6-yl)(3-chlorophenyl)(pyridin-3-yl)methanol]: greater than 6 µM, 32% and 0.04 µM.
For the compound `OC(c1cccnc1)(c1ccc2nc(Cl)c(Cc3cccc(Cl)c3)cc2c1)c1cncs1` (stereo not drawn) [Example 10], at human RORγt LBD, the IC50 was determined as 2.3 µM and the inhibition at 6 µM turned out to be 77%. Moreover, in assay [1], the Kd was 0.099 µM.
For `COc1ccc(Cc2c(Cl)nc3ccc(C(O)(c4ccc(Cl)cc4)c4cncn4C)cc3c2Cl)cc1` (stereo not drawn) [Example 12, (4-Chlorophenyl)(2,4-dichloro-3-(4-methoxybenzyl)quinolin-6-yl)(1-methyl-1H-imidazol-5-yl)methanol.TFA] the same measures were roughly 7 µM, 77% and 0.016 µM.
